Patent US20250074911A1, “MACROCYCLIC BTK INHIBITORS” (Crossfire Oncology Holding B.V., priority 2021, published 2025)

Legend:
[1] = target: BTK T474S (Homo sapiens (Human), UniProt Q06187, T474S); assay: Binding kinetics measurements (Surface Plasmon Resonance) on BTK T474S; conditions: for residence time: SPR binding kinetics, BTK T474S, read-out: Tau (h) BTK T474S (Act), target residence time (converted); for Kd: binding affinity by Surface Plasmon Resonance (SPR)
In short: (§1)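 Constants come from single-cycle kinetics: five rising compound injections (3.16-316 nM) at 30 μl/min and 22° C over streptavidin-captured BTK (wild type or mutant), running buffer containing 1% DMSO. Double referencing applied; induced-fit binders fitted to a two-state model; duplicates geometrically averaged; residence time derived.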

[2] = target: BTK C481S (Homo sapiens (Human), UniProt Q06187, C481S); assay: Binding kinetics measurements (Surface Plasmon Resonance) on BTK C481S; conditions: for Kd: binding affinity by Surface Plasmon Resonance (SPR); for Tau (h) BTK C418S (Act): target residence time for BTK C481S, SPR
In short: as §1

[3] = target: BTK T316A (Homo sapiens (Human), UniProt Q06187, T316A); assay: Binding kinetics measurements (Surface Plasmon Resonance) on BTK T316A; conditions: for Kd: binding affinity by Surface Plasmon Resonance (SPR); for Tau (h) BTK T316A (Act): target residence time, SPR
In short: as §1

[4] = test system: REC-1 T474I cell lines; assay: Cell proliferation assay REC-1 BTK T474I knock-in cells (ATPlite, 72 hours); type: cell-based; conditions: Homo sapiens, Rec1; 72 hours; read-out: IC50 REC-1 T474I
In short: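 REC-1 cells carrying CRISPR knock-in mutant BTK, single-cell cloned and sequence-confirmed, were exposed to compound for 72 h and read by ATPlite luminescence. Percentage growth was calculated against the signal at the start of incubation and against untreated 0.3% DMSO wells as maximum growth.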

[5] = target: wt-BTK (Homo sapiens (Human), UniProt Q06187); assay: Binding kinetics measurements (Surface Plasmon Resonance) on wt-BTK; conditions: for Kd: binding affinity by Surface Plasmon Resonance (SPR); for Tau (h) wt-BTK (Act): target residence time, SPR
In short: as §1

Sequence of BTK T474S (Q06187 whole entry T474S): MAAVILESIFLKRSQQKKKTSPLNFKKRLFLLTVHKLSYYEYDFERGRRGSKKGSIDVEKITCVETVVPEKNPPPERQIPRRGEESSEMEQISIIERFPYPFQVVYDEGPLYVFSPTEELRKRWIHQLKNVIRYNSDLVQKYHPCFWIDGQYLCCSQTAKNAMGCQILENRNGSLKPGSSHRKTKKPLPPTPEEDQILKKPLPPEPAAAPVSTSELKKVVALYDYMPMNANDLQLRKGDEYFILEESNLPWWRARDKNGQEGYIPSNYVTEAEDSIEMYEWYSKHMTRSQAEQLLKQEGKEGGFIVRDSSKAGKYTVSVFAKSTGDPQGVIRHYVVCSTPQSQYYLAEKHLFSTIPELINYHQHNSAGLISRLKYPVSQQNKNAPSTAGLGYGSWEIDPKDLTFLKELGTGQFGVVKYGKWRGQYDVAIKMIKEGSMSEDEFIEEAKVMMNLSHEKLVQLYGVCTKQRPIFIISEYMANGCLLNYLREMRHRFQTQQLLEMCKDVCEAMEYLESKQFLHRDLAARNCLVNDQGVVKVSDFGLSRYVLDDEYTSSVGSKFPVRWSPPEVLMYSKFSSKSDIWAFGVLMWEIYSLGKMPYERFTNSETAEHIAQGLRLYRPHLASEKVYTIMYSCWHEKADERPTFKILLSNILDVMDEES
Sequence of BTK T316A (Q06187 whole entry T316A): as the sequence (Q06187 whole entry T474S) above, with T316A, S474T counted along it
Sequence of BTK C481S (Q06187 whole entry C481S): as the sequence (Q06187 whole entry T474S) above, with S474T, C481S counted along it
Sequence of wt-BTK (Q06187 whole entry): as the sequence (Q06187 whole entry T474S) above, with S474T counted along it

| Structure (SMILES) | residence time [1] | Kd [1] | Kd [2] | Tau (h) BTK C418S (Act) [2] | Kd [3] | Tau (h) BTK T316A (Act) [3] | IC50 [4] | Kd [5] | Tau (h) wt-BTK (Act) [5] |
| --- | --- | --- | --- | --- | --- | --- | --- | --- | --- |
| Nc1ncc2c3c1c(-c1ccc(C(=O)Nc4cc(C(F)(F)F)ccn4)cc1)nn3[C@@H]1CCC[C@H](C1)NC(=O)CCOC/C=C/2 [Example 25] | 2.64 h | < 3 nM | < 5 nM | 12.17 h | < 5 nM | 3.55 h | < 100 nM | < 5 nM | 9.45 h |
| C[C@@H]1CC(=O)N[C@@H]2CCC[C@H](C2)n2nc(-c3ccc(C(=O)Nc4cc(C(F)(F)F)ccn4)cc3)c3c(N)ncc(c32)/C=C/CCN1 [Example 45] | 2.94 h | < 3 nM | < 5 nM | 3.17 h | < 5 nM | 6.06 h | < 100 nM | < 5 nM | 4.42 h |
| N#Cc1ccnc(NC(=O)c2ccc(-c3nc4n5c(cnc(N)c35)/C=C/CCCCCC(=O)N[C@@H]3CCC[C@@H]4C3)cc2)c1 [Example 184] |  |  | < 5 nM | 2.43 h |  |  | < 100 nM |  | 5.55 h |
| N#Cc1ccnc(NC(=O)c2ccc(-c3nc4n5c(cnc(N)c35)/C=C/CCOCCC(=O)N[C@@H]3CC[C@@H]4C3)cc2)c1 [Example 201] |  |  |  | 1.91 h |  |  | < 100 nM |  | 10.14 h |
| N#Cc1ccnc(NC(=O)c2ccc(-c3nc4n5c(cnc(N)c35)/C=C/CCCCCC(=O)N[C@@H]3CC[C@@H]4C3)cc2)c1 [Example 204] |  |  | < 5 nM |  |  |  | < 100 nM |  | 5.64 h |
